The source made the active and inactive calls. How the calls were made is not given here.
Tested on: GENE-TOX genotoxicity assays, various organisms and cells
Assay: GENE-TOX mutagenicity studies
Details: for call: Assay Type: In vivo carcinogenicity studies
[1] = Species/Cell Type: Drosophila melanogaster, Assay Type: Sex-linked recessive lethal gene mutation, Assay Code: SRL+, Evaluation Type: Evaluation A (Pre-1980)
[2] = Species/Cell Type: Drosophila melanogaster, Sex: Male, Assay Type: Heritable translocation test, chromosome aberrations, Assay Code: DHTT, Evaluation Type: Evaluation A (Pre-1980)
[3] = Species/Cell Type: Mammalian polychromatic erythrocytes, Assay Type: Micronucleus test, chromosome aberrations, Assay Code: MNT+, Evaluation Type: Evaluation B (Post-1980)
[4] = Species/Cell Type: Human, Assay Type: Sister-chromatid exchange (SCE) in vitro, Assay Code: SC1T, Evaluation Type: Evaluation B (Post-1980)
[5] = Species/Cell Type: Salmonella typhimurium (one or more of the five standard strains: TA98, TA100, TA1535, TA1537, and TA1538), Assay Type: Histidine reverse gene mutation, Ames assay, Assay Code: SAL+, Evaluation Type: Evaluation A (Pre-1980)
[6] = Species/Cell Type: Chinese hamster lung (V79) cells, Assay Type: Forward gene mutation at the HPRT or ouabain locus, Assay Code: V79+, Evaluation Type: Evaluation A (Pre-1980)
[7] = Species/Cell Type: Syrian hamster embryo (SHE) cells, Assay Type: Cell transformation, clonal assay, Assay Code: CTC+, Evaluation Type: Evaluation A (Pre-1980)
[8] = Species/Cell Type: Nonhuman, Assay Code: CCG+, Evaluation Type: Evaluation A (Pre-1980)
[9] = Species/Cell Type: Mouse, Sex: Male, Assay Type: Sperm morphology, Assay Code: SPI-, Evaluation Type: Evaluation A (Pre-1980)
[10] = Species/Cell Type: Nonhuman, Assay Type: Sister-chromatid exchange (SCE) in vivo, Assay Code: SC3+D, Dose Response: With dose response, Evaluation Type: Evaluation B (Post-1980)
[11] = Species/Cell Type: Bacillus subtilis (H17 vs M45), Assay Type: Rec-assay, spot test, DNA effects (bacterial DNA repair), Assay Code: REW+, Evaluation Type: Evaluation A (Pre-1980)
[12] = Species/Cell Type: Human lymphocytes, Assay Type: Sister-chromatid exchange (SCE) in vivo, Assay Code: SCY+, Evaluation Type: Evaluation B (Post-1980)
[13] = Species/Cell Type: Salmonella typhimurium (one or more of the five standard strains: TA98, TA100, TA1535, TA1537, and TA1538), Assay Type: Histidine reverse gene mutation, Ames assay, Assay Code: SAL+*, Activation: With metabolic activation, Evaluation Type: Evaluation A (Pre-1980)

CN(C)C(c1ccccc1)(c1ccccc1)N(C)C
mutagenic call (Species/Cell Type: Salmonella typhimurium (one or more of the five standard strains: TA98, TA100, TA1535, TA1537, and TA1538), Assay Type: Histidine reverse gene mutation, Ames assay, Assay Code: SAL-, Evaluation Type: Evaluation A (Pre-1980)): inactive; negative

CNC(=O)Oc1cccc2c1OC(C)(C)O2
mutagenic call (Species/Cell Type: Aspergillus nidulans, Assay Type: Aneuploidy, chromosome aberrations, Assay Code: ASN-, Evaluation Type: Evaluation A (Pre-1980)): inactive; negative

C=COC=C
mutagenic call (Species/Cell Type: Nonhuman, Assay Type: Sister-chromatid exchange (SCE) in vitro, Assay Code: SC2+, Evaluation Type: Evaluation B (Post-1980)): active; positive

CC(=O)N(C)N=O
mutagenic call [1]: active; positive
mutagenic call [2]: no conclusion
mutagenic call (Species/Cell Type: Saccharomyces cerevisiae, Assay Type: Forward gene mutation, Assay Code: YEF+, Evaluation Type: Evaluation A (Pre-1980)): active; positive
mutagenic call (Species/Cell Type: Saccharomyces cerevisiae, Assay Type: Reverse gene mutation, Assay Code: YER+, Evaluation Type: Evaluation A (Pre-1980)): active; positive

[Cl-].[Cl-].[NH2-].[NH2-].[NH2-].[NH2-].[Pt+2]
mutagenic call (Species/Cell Type: Chinese hamster ovary (CHO) cells, Assay Type: Forward gene mutation at the HPRT locus, Assay Code: CHOT, Evaluation Type: Evaluation B (Post-1980)): no conclusion

COc1ccc(CCC(=O)c2c(O)cc(O[C@@H]3O[C@H](CO)[C@@H](O)[C@H](O)[C@H]3O[C@@H]3O[C@@H](C)[C@H](O)[C@@H](O)[C@H]3O)cc2O)cc1O
mutagenic call [3]: active; positive
mutagenic call (Species/Cell Type: Salmonella typhimurium, Assay Type: Forward and reverse gene mutation, host-mediated assay, Assay Code: HMA-, Evaluation Type: Evaluation A (Pre-1980)): inactive; negative

[Cl][Pd][Cl]
mutagenic call (Species/Cell Type: Bacillus subtilis (H17 vs M45), Assay Type: Rec-assay, spot test, DNA effects (bacterial DNA repair), Assay Code: REW-, Evaluation Type: Evaluation A (Pre-1980)): inactive; negative

COc1cccc(OC)c1O
mutagenic call (Species/Cell Type: Human lymphocytes, Assay Type: Sister-chromatid exchange (SCE) in vitro, Assay Code: SCLT, Evaluation Type: Evaluation B (Post-1980)): no conclusion
mutagenic call [4]: no conclusion

Cl/C=C/CCl
mutagenic call [5]: active; positive

c1ccc2c(c1)-c1cc3ccc4ccccc4c3cc1C1OC21 (configuration not stated)
mutagenic call [6]: active; positive
mutagenic call (Species/Cell Type: Human diploid fibroblasts, Assay Type: Unscheduled DNA synthesis (UDS) in vitro, DNA effects, Assay Code: UDHT, Evaluation Type: Evaluation A (Pre-1980)): no conclusion
mutagenic call (Species/Cell Type: Mouse prostate cells, Assay Type: Cell transformation, Assay Code: CTM+D, Dose Response: With dose response, Evaluation Type: Evaluation A (Pre-1980)): active; positive
call (Species/Cell Type: Nonhuman, Assay Code: CCG+L, Evaluation Type: Evaluation A (Pre-1980)): active; positive
mutagenic call (Species/Cell Type: Nonhuman, Assay Type: Sister-chromatid exchange (SCE) in vitro, Assay Code: SC2+D, Dose Response: With dose response, Evaluation Type: Evaluation B (Post-1980)): active; positive
mutagenic call [5]: active; positive
mutagenic call [7]: active; positive

O=C1O[C@H]([C@H](O)CO)C(O)=C1O
mutagenic call [4]: no conclusion

Nc1ccc2c(c1)C(=O)c1ccccc1C2=O
call [8]: active; positive

Cc1c2ccccc2c(C)c2c1ccc1cc(O)ccc12
mutagenic call (Species/Cell Type: Chinese hamster lung (V79) cells, Assay Type: Forward gene mutation at the HPRT or ouabain locus, Assay Code: V79-*, Activation: With metabolic activation, Evaluation Type: Evaluation A (Pre-1980)): inactive; negative
call (Species/Cell Type: Nonhuman, Assay Code: CCGT, Evaluation Type: Evaluation A (Pre-1980)): no conclusion

O=NN1CCOCC1
mutagenic call [6]: active; positive
mutagenic call [1]: active; positive
mutagenic call [2]: no conclusion
mutagenic call (Species/Cell Type: Human lymphocytes or leukocytes, Assay Type: Chromosome aberrations in vivo, Assay Code: CY8+, Evaluation Type: Evaluation A (Pre-1980)): active; positive
mutagenic call (Species/Cell Type: Mammalian polychromatic erythrocytes, Assay Type: Micronucleus test, chromosome aberrations, Assay Code: MNT+, Evaluation Type: Evaluation A (Pre-1980)): active; positive
mutagenic call [9]: inactive; negative
mutagenic call (Species/Cell Type: Nonhuman lymphocytes or leukocytes, Assay Type: Chromosome aberrations in vivo, Assay Code: CY%+, Evaluation Type: Evaluation A (Pre-1980)): active; positive
call [8]: active; positive
mutagenic call (Species/Cell Type: Nonhuman, Assay Type: Sister-chromatid exchange (SCE) in vitro, Assay Code: SC2+D*, Activation: With metabolic activation, Dose Response: With dose response, Evaluation Type: Evaluation B (Post-1980)): active; positive
mutagenic call [10]: active; positive
mutagenic call (Species/Cell Type: Rat primary hepatocytes, Assay Type: Unscheduled DNA synthesis (UDS) in vitro, DNA effects, Assay Code: UDP+, Evaluation Type: Evaluation A (Pre-1980)): active; positive
mutagenic call (Species/Cell Type: Salmonella typhimurium (one or more of the five standard strains: TA98, TA100, TA1535, TA1537, and TA1538), Assay Type: Histidine reverse gene mutation, Ames assay, Assay Code: SALT, Evaluation Type: Evaluation A (Pre-1980)): no conclusion
mutagenic call (Species/Cell Type: Salmonella typhimurium, Assay Type: Forward and reverse gene mutation, host-mediated assay, Assay Code: HMA+, Evaluation Type: Evaluation A (Pre-1980)): active; positive

C=C[C@H]1CN2CC[C@H]1C[C@H]2[C@H](O)c1ccnc2ccc(OC)cc12
mutagenic call (Species/Cell Type: Mammalian polychromatic erythrocytes, Assay Type: Micronucleus test, chromosome aberrations, Assay Code: MNT+U, Dose Response: Unconfirmed positive response, Evaluation Type: Evaluation B (Post-1980)): active; positive
mutagenic call [10]: active; positive

[Cl][Sb]([Cl])[Cl]
mutagenic call [11]: active; positive

[O]=[V]
mutagenic call [11]: active; positive

NC[C@H](O)CCl
mutagenic call (Species/Cell Type: Rat, Sex: Male, Assay Type: Sperm morphology, Assay Code: SPA+, Evaluation Type: Evaluation A (Pre-1980)): active; positive
mutagenic call (Species/Cell Type: Rodents, Sex: Male, Assay Type: Dominant lethal test, Assay Code: DLT-, Evaluation Type: Evaluation A (Pre-1980)): inactive; negative

Cc1c2ccccc2c(C2CO2)c2ccccc12 (configuration not stated)
mutagenic call [5]: active; positive

CCOC(=O)CCCCC(=O)OCC
mutagenic call (Species/Cell Type: Rodents, Sex: Male, Assay Type: Dominant lethal test, Assay Code: DLT+, Evaluation Type: Evaluation A (Pre-1980)): active; positive

CI
mutagenic call (Species/Cell Type: Escherichia coli polA (W3119 vs P3478), Assay Type: Rec-assay, DNA effects (bacterial DNA repair), Assay Code: RE1+, Evaluation Type: Evaluation A (Pre-1980)): active; positive
mutagenic call (Species/Cell Type: Mouse lymphoma (L5178Y) cells, Assay Type: Forward gene mutation at the thymidine kinase (TK) locus, chromosome aberrations, Assay Code: L51+, Evaluation Type: Evaluation A (Pre-1980)): active; positive
call [8]: active; positive
mutagenic call (Species/Cell Type: Saccharomyces cerevisiae, Assay Type: Mitotic recombination or gene conversion, Assay Code: YEH+, Evaluation Type: Evaluation A (Pre-1980)): active; positive
mutagenic call [7]: active; positive

CCCCCc1cc(O)c2c(c1)OC(C)(C)[C@@H]1CCC(C)=C[C@@H]21
mutagenic call (Species/Cell Type: Fischer rat embryo (RLV/1706) cells, Assay Type: Cell transformation, viral enhanced, Assay Code: CTR+, Evaluation Type: Evaluation A (Pre-1980)): active; positive
mutagenic call (Species/Cell Type: Human diploid fibroblasts, Assay Type: Unscheduled DNA synthesis (UDS) in vitro, DNA effects, Assay Code: UDH-, Evaluation Type: Evaluation A (Pre-1980)): inactive; negative
mutagenic call (Species/Cell Type: Human lymphocytes or leukocytes, Assay Type: Chromosome aberrations in vivo, Assay Code: CY8-, Evaluation Type: Evaluation A (Pre-1980)): inactive; negative
mutagenic call [12]: active; positive
mutagenic call (Species/Cell Type: Human, Assay Type: Sister-chromatid exchange (SCE) in vitro, Assay Code: SC1-, Evaluation Type: Evaluation A (Pre-1980)): inactive; negative
mutagenic call [3]: active; positive
mutagenic call (Species/Cell Type: Mammalian polychromatic erythrocytes, Assay Type: Micronucleus test, chromosome aberrations, Assay Code: MNTT, Evaluation Type: Evaluation A (Pre-1980)): no conclusion
mutagenic call (Species/Cell Type: Mouse, Sex: Male, Assay Type: Sperm morphology, Assay Code: SPI+, Evaluation Type: Evaluation A (Pre-1980)): active; positive

CC1CC(=O)O1 (configuration not stated)
call [8]: active; positive

C=C(C)[C@@H]1CCC(C)=C[C@H]1c1c(O)cc(CCCCC)cc1O
mutagenic call (Species/Cell Type: Fischer rat embryo (RLV/1706) cells, Assay Type: Cell transformation, viral enhanced, Assay Code: CTR-, Evaluation Type: Evaluation A (Pre-1980)): inactive; negative
mutagenic call [12]: active; positive
mutagenic call [3]: active; positive
mutagenic call [9]: inactive; negative

CC1C=Cc2c1ccc1c2ccc2ccccc21 (configuration not stated)
mutagenic call [13]: active; positive

CC(=O)Oc1c2ccccc2c2ccc3cccc4ccc1c2c43
mutagenic call (Species/Cell Type: Syrian hamster embryo (SA7/SHE) cells, Assay Type: Cell transformation, viral enhanced, Assay Code: CT7+, Evaluation Type: Evaluation A (Pre-1980)): active; positive

CCc1cc2c(c3ccc4ccccc4c13)CCC2=O
mutagenic call [13]: active; positive

Reference: PubChem BioAssay AID1259408 (Genetic Toxicology Data Bank (GENE-TOX), 2018)
